The test system of test [1] is normal monkey kidney epithelial cell line CV-1. The experiment in a line: Colony formation assay, normal monkey kidney epithelial cells CV-1.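 On all read-outs here: colonies visualized by crystal violet staining, incubation at 37 °C, IC50 relative to untreated wells given culture medium alone.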 The note with it: for IC50: Primates, Epithelial cell; for CV-1 (IC50): Table III.
For test [2], the system named is human colon carcinoma cell line CX-1. The experiment in a line: Colony formation assay, human colon carcinoma CX-1. The following applies: for IC50: Homo sapiens, Colon carcinoma cell; for IC50 / CX-1 (IC50): 24 h treatment, colony count after 7 to 10 days; for Selectivity (ratio of IC50 for CV-1 and IC50 for CX-1): CV-1/CX-1. It is filed as cell-based.
Setting [3] is: read-out: CV-1 (IC50), Table III, 24 h treatment, colony count after 7 to 10 days.
The mark [4] stands for this setting: read-out: CX-1 (IC50), Table III.
The mark [5] stands for this setting: Table III, read-out: CX-1 (IC50).
The mark [6] stands for this setting: 24 h treatment, colony count after 7 to 10 days.

Like-named read-outs stand apart in the source and are kept apart here. Some results are limits rather than exact numbers.

As for `CCN1CCSC1=CC=c1sc(=Cc2oc3c4ccccc4ccc3[n+]2CC)n(CC)c1=O` [Compound 390], the IC50 (in general, the concentration needed to halve the response being measured) in test [1] (setting [3]) came to 20 µg/mL; in test [2] (setting [4]), 0.08 µg/mL. The “Selectivity (ratio of IC50 for CV-1 and IC50 for CX-1)” value in test [2] (Table III) is reported as 250.

As for `CCN1C(C)=CSC1=CC=c1sc(=Cc2oc3cc(C)c(C)cc3[n+]2CC)n(CC)c1=O` [Compound 388], the half-inhibitory concentration (IC50) was 8 µg/mL in test [1] (read-out: CV-1 (IC50)) and 0.03 µg/mL in test [2] (setting [4]). Further, the “Selectivity (ratio of IC50 for CV-1 and IC50 for CX-1)” value in test [2] (Table III) came out at 261.

Regarding `CCN1C(=CC=c2sc(=Cc3sc4c5ccccc5ccc4[n+]3CC)n(CC)c2=O)C=Cc2cc(Cl)ccc21` [Compound 253], the 50% inhibitory concentration (IC50) is > 20 µg/mL in test [1] (setting [3]) and 0.04 µg/mL in test [2] (setting [5]). Also, the “Selectivity (ratio of IC50 for CV-1 and IC50 for CX-1)” value in test [2] (Table III) is recorded as > 500.

Take `CCn1c(=Cc2cccc[n+]2CC)sc(=CC=C2Sc3ccc4ccccc4c3N2C)c1=O` [Compound 385]: the concentration for half-maximal inhibition (IC50) was 20 µg/mL in test [1] (setting [3]) and 0.2 µg/mL in test [2] (setting [4]). The “Selectivity (ratio of IC50 for CV-1 and IC50 for CX-1)” value in test [2] (Table III) came to 100.

With `CCN1CCSC1=CC=c1sc(=Cc2sc3ccccc3[n+]2CC)n(CC)c1=O` [Compound 137], the IC50 stood at 5 µg/mL in test [1] (setting [3]) and 0.05 µg/mL in test [2] (setting [5]). The “Selectivity (ratio of IC50 for CV-1 and IC50 for CX-1)” value in test [2] (Table III) is 100.

For `CCN1CCSC1=CC=c1sc(=Cc2sc3c4ccccc4ccc3[n+]2CC)n(CC)c1=O` [Compound 151], in test [1] (setting [6]), the “CV-1 (IC50)” value is 20 µg/mL. Also, in test [2] (Table III), the “CX-1 (IC50)” value amounted to 0.08 µg/mL; the “Selectivity (ratio of IC50 for CV-1 and IC50 for CX-1)” value came out at 250.

`CCN1C(C)=CSC1=CC=c1sc(=C2CCC[n+]3c2sc2ccccc23)n(CC)c1=O` [Compound 389]: the concentration for half-maximal inhibition (IC50) in test [1] (setting [3]) was 15 µg/mL. Moreover, in test [2] (Table III), the “CX-1 (IC50)” value is 0.08 µg/mL; the “Selectivity (ratio of IC50 for CV-1 and IC50 for CX-1)” value is given as 188.

`CCN1C(=CC=c2sc(=CC3=[N+](CC)CCS3)n(CC)c2=O)C=Cc2ccccc21` [Compound 394]: the IC50 in test [1] (read-out: CV-1 (IC50)) was determined as 10 µg/mL; in test [2] (setting [4]), 0.08 µg/mL. Further, in test [2] (Table III), the “Selectivity (ratio of IC50 for CV-1 and IC50 for CX-1)” value amounted to 125.

For `CCN1C(=CC=c2sc(=Cc3[se]c4ccccc4[n+]3CC)n(CC)c2=O)Sc2ccc3ccccc3c21` [Compound 74], the half-inhibitory concentration (IC50) worked out at 10 µg/mL in test [1] (read-out: CV-1 (IC50)) and 0.1 µg/mL in test [2] (setting [4]). For the same compound, in test [2] (Table III), the “Selectivity (ratio of IC50 for CV-1 and IC50 for CX-1)” value is recorded as 100.

In the case of `CCN1C=CC(=CC=c2sc(=Cc3sc4ccc5ccccc5c4[n+]3CC)n(CC)c2=O)c2ccccc21` [Compound 307], the figures for the 50% inhibitory concentration (IC50) in test [1] (setting [3]) and in test [2] (setting [5]) were 3 µg/mL and 0.02 µg/mL, respectively. The “Selectivity (ratio of IC50 for CV-1 and IC50 for CX-1)” value in test [2] (Table III) is recorded as 150.

As to `CCN1C(C)=CSC1=CC=c1sc(=Cc2sc3ccccc3[n+]2CC)n(CC)c1=O` [Compound 92], the “CV-1 (IC50)” value in test [1] (setting [6]) is 9 µg/mL. For the same compound, in test [2] (setting [5]), the half-maximal inhibitory concentration (IC50) is 0.05 µg/mL. Besides, the “Selectivity (ratio of IC50 for CV-1 and IC50 for CX-1)” value in test [2] (Table III) turned out to be 180.

As to `CCN1C(=CC=c2sc(=Cc3sc4c5ccccc5ccc4[n+]3CC)n(CC)c2=O)Sc2c1ccc1ccccc21` [Compound 7], the concentration for half-maximal inhibition (IC50) worked out at 4 µg/mL in test [1] (setting [3]) and 0.04 µg/mL in test [2] (setting [5]). Besides, the “Selectivity (ratio of IC50 for CV-1 and IC50 for CX-1)” value in test [2] (Table III) was determined as 100.

With `CCOc1cc2c(cc1C)sc(C=c1sc(=CC=C3N(C)c4ccccc4C3(C)C)c(=O)n1CC)[n+]2CC` [Compound 209], the figures for the IC50 in test [1] (setting [3]) and in test [2] (setting [5]) were 1 µg/mL and 0.01 µg/mL, respectively. Also, the “Selectivity (ratio of IC50 for CV-1 and IC50 for CX-1)” value in test [2] (Table III) is on record as 100.

`CCN1C(=CC=c2sc(=Cc3sc4c5ccccc5ccc4[n+]3CC)n(CCOC(C)=O)c2=O)Sc2ccc3ccccc3c21` [Compound 67]: the figures for the IC50 in test [1] (read-out: CV-1 (IC50)) and in test [2] (setting [5]) were 10 µg/mL and 0.05 µg/mL, respectively. In addition, the “Selectivity (ratio of IC50 for CV-1 and IC50 for CX-1)” value in test [2] (Table III) is reported as 200.

As to `CCN1C(=CC=c2sc(=Cc3sc4c5ccccc5ccc4[n+]3CC)n(CC)c2=O)C=Cc2cc(C)ccc21` [Compound 254], the 50% inhibitory concentration (IC50) was determined as 10 µg/mL in test [1] (read-out: CV-1 (IC50)) and 0.1 µg/mL in test [2] (setting [4]). Besides, in test [2] (Table III), the “Selectivity (ratio of IC50 for CV-1 and IC50 for CX-1)” value amounted to 100.

For the compound `CCN1CCSC1=CC=c1sc(=Cc2[se]c3ccccc3[n+]2CC)n(CC)c1=O` [Compound 157], the IC50 in test [1] (read-out: CV-1 (IC50)) came to 8 µg/mL; in test [2] (setting [4]) it was 0.08 µg/mL. Besides, the “Selectivity (ratio of IC50 for CV-1 and IC50 for CX-1)” value in test [2] (Table III) is reported as 100.

As to `CCN1CCSC1=CC=c1sc(=CC2=[N+](CC)CCS2)n(CC)c1=O` [Compound 142], the figures for the half-inhibitory concentration (IC50) in test [1] (setting [3]) and in test [2] (setting [4]) were 20 µg/mL and 0.1 µg/mL, respectively. In addition, the “Selectivity (ratio of IC50 for CV-1 and IC50 for CX-1)” value in test [2] (Table III) is 200.

As for `CCN1C(=CC=c2sc(=Cc3cc[n+](CC)c4ccccc34)n(CC)c2=O)C=Cc2ccccc21` [Compound 392], the “CV-1 (IC50)” value in test [1] (setting [6]) came to 20 µg/mL. Besides, in test [2] (Table III), the “CX-1 (IC50)” value was determined as 0.01 µg/mL; the “Selectivity (ratio of IC50 for CV-1 and IC50 for CX-1)” value is listed as 286.

For the compound `CCN1C(=CC=c2sc(=Cc3cc[n+](CC)c4ccccc34)n(CC)c2=O)C=Cc2ccccc21` [Compound 393], the “CV-1 (IC50)” value in test [1] (setting [6]) stood at 20 µg/mL. Further, in test [2] (Table III), the “CX-1 (IC50)” value amounted to 0.05 µg/mL; the “Selectivity (ratio of IC50 for CV-1 and IC50 for CX-1)” value was 400.

In the case of `CCN1C=C(C)C=CC1=CC=c1sc(=Cc2sc3cc(C)c(C)cc3[n+]2CC)n(CC)c1=O` [Compound 397], the IC50 in test [1] (setting [3]) worked out at 20 µg/mL; in test [2] (setting [5]), 0.05 µg/mL. Moreover, in test [2] (Table III), the “Selectivity (ratio of IC50 for CV-1 and IC50 for CX-1)” value was found to be 400.

Consider `CCN1CCSC1=CC=c1sc(=Cc2oc3ccc4ccccc4c3[n+]2CC)n(CC)c1=O` [Compound 143], for which the concentration for half-maximal inhibition (IC50) in test [1] (setting [3]) stood at 5 µg/mL; in test [2] (setting [5]), 0.05 µg/mL. The “Selectivity (ratio of IC50 for CV-1 and IC50 for CX-1)” value in test [2] (Table III) is listed as 100.

As for `CCN1C(C)=CSC1=CC=c1sc(=C2CCC[n+]3c2sc2ccccc23)n(CC)c1=O` [Compound 386], the 50% inhibitory concentration (IC50) was 10 µg/mL in test [1] (read-out: CV-1 (IC50)) and 0.1 µg/mL in test [2] (setting [4]). For the same compound, the “Selectivity (ratio of IC50 for CV-1 and IC50 for CX-1)” value in test [2] (Table III) is on record as 100.

In the case of `CCN1CCSC1=CC=c1sc(=Cc2sc3cc(OC)c(OC)cc3[n+]2CC)n(CC)c1=O` [Compound 134], the concentration for half-maximal inhibition (IC50) in test [1] (read-out: CV-1 (IC50)) stood at 10 µg/mL; in test [2] (setting [4]) it was 0.1 µg/mL. The “Selectivity (ratio of IC50 for CV-1 and IC50 for CX-1)” value in test [2] (Table III) was found to be 100.

For the compound `CCn1c(=Cc2sc3cc(C)ccc3[n+]2CC)sc(=CC=C2N(C)c3ccccc3C2(C)C)c1=O` [Compound 207], the IC50 in test [1] (setting [3]) was determined as 1.5 µg/mL; in test [2] (setting [5]), 0.01 µg/mL. In addition, the “Selectivity (ratio of IC50 for CV-1 and IC50 for CX-1)” value in test [2] (Table III) came out at 150.

For `CCN1C(=CC=c2sc(=Cc3sc4ccc5ccccc5c4[n+]3CC)n(CC)c2=O)Sc2c1ccc1ccccc21` [Compound 20], the half-maximal inhibitory concentration (IC50) in test [1] (setting [3]) was determined as 6 µg/mL; in test [2] (setting [4]) it was 0.03 µg/mL. Also, the “Selectivity (ratio of IC50 for CV-1 and IC50 for CX-1)” value in test [2] (Table III) is 200.

In the case of `CCN1C(=CC=c2sc(=Cc3sc4c5ccccc5ccc4[n+]3CC)n(CC)c2=O)C(C)(C)c2cc(Cl)ccc21` [Compound 220], the values for the IC50 in test [1] (setting [3]) and in test [2] (setting [5]) were 5 µg/mL and 0.04 µg/mL, respectively. In addition, the “Selectivity (ratio of IC50 for CV-1 and IC50 for CX-1)” value in test [2] (Table III) is 125.

As for `CCN1C=CC=CC1=CC=c1sc(=Cc2sc3ccc4ccccc4c3[n+]2CC)n(CC)c1=O` [Compound 398], the figures for the IC50 in test [1] (setting [3]) and in test [2] (setting [5]) were 16 µg/mL and 0.04 µg/mL, respectively. Besides, in test [2] (Table III), the “Selectivity (ratio of IC50 for CV-1 and IC50 for CX-1)” value is given as 400.

Consider `CCN1C(=CC=c2sc(=Cc3sc4ccc5ccccc5c4[n+]3CC)n(CC)c2=O)Sc2ccc3ccccc3c21` [Compound 30], for which the IC50 was 5 µg/mL in test [1] (setting [3]) and 0.025 µg/mL in test [2] (setting [5]).

With `CCN1C(=CC=c2sc(=Cc3cc[n+](CC)c4ccccc34)n(CC)c2=O)C=Cc2cc(Cl)ccc21` [Compound 396], in test [2] (Table III), the “CX-1 (IC50)” value turned out to be 0.08 µg/mL; the “Selectivity (ratio of IC50 for CV-1 and IC50 for CX-1)” value amounted to 250.

For the origin of these results see patent publication US5861424A, “Composition and method for treating cancer” (priority 1995, dated 1999).
